What was measured:
[1] = target: T1, Recombinant full-length human EP (Enteropeptidase) (Homo sapiens, UniProt P98073); assay: In vitro inhibition potencies against Enteropeptidase (EP), fluorescent peptide GDDDDK-naphthylamine substrate; assay type: biochemical; conditions: 300 μM substrate, 1.25 nM EP; for kinact/KI: 12-point dose-dependence, time-dependent inhibition, duplicate dilutions, read-out: kinact/KI^App; for inhibition at 0.1 µM: compound 0.1 μM; for inhibition at 1 µM: compound 1 μM; for inhibition at 10 µM: compound 10 μM
T1 construct: Recombinant full-length human EP (PeproTech, Cat #450-48C); purchased PeproTech 450-48C
T1 sequence (P98073 whole entry): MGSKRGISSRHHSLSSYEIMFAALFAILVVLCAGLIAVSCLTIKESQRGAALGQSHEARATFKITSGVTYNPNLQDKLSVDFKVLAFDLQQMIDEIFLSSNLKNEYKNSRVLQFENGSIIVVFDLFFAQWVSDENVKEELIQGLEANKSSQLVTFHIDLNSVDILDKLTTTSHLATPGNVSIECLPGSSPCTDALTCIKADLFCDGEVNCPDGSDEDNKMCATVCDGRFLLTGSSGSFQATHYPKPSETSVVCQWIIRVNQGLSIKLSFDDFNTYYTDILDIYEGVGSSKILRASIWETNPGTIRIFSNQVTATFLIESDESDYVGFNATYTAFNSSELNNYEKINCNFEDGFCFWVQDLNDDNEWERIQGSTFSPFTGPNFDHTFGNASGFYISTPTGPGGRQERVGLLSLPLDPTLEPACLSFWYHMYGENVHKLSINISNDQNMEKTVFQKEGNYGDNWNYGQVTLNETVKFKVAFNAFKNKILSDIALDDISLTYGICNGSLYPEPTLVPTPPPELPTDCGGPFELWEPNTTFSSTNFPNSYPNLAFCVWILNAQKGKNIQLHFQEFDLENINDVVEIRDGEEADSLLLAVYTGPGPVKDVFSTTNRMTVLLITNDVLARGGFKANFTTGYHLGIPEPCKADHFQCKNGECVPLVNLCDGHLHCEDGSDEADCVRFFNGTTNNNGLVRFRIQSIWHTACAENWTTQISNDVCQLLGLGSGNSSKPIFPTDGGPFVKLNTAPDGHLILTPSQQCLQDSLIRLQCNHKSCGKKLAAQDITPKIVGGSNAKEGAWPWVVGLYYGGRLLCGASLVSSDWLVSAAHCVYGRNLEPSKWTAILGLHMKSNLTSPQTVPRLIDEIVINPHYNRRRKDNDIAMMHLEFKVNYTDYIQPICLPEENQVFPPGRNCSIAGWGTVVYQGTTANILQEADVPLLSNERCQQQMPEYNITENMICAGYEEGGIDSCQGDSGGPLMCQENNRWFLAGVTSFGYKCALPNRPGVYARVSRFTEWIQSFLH
Protocol: In vitro inhibition potencies against Enteropeptidase (EP) Recombinant full-length human EP (PeproTech, Cat #450-48C) was used in this biochemical assay, with a quenched fluorescent labeled peptide GDDDDK-naphthylamine (NA) (Sigma, Cat #G5261) as the substrate in a buffer of 50 mM Tris-HCl pH 7.4, 200 mM NaCl and 0.01% Triton X-100. The enzyme activity was measured by following the formation of the cleavage product […](NA) by monitoring the fluorescence intensity (FI) at excitation/emission wavelengths of 340/410 nm. The steady-state kinetic characterization studies yielded an average of KM to be 412±22 μM and the apparent turnover number kcat^app of 11.8±0.4 s^−1 (N=2).
Compound inhibition studies were carried out under the conditions of 300 μM substrate and 1.25 nM EP. Reaction progress curves were collected by reading the FI at 340/410 nm continuously for 1 hour at an interval of 1 minute.
To screen compounds of formula (I), inhibition was studied at 4 different compound concentrations of 10 μM, 1 μM, 0.1 μM and 0.01 μM. Initial velocity of the reaction was determined, and percent of inhibition was calculated by comparing to the reaction in the absence of compound.
Accurate measurements of the inhibition potencies of selected compounds were studied in a 12-point dose-dependence fashion. […] Compound potency was measured by determining the inactivation rate constant (kobs) following the reaction change from the initial velocity vi to the steady-state velocity vs at various compound concentrations. The inactivation rate constants (kobs), were derived by fitting the reaction progress curves to eq. 1.
where YT is the detection signal of the reaction at time t, vi and vs are the initial and the steady-state velocities of the reaction, t is the reaction time. Y0 is the background signal (when t=0).
Compound binding mechanism was shown by plotting kobs˜[compound]. Hyperbolic fitting to eq. 2
conforms to a two-step binding mechanism as shown in Scheme BIO-1.
The plateau of the curve is the forward step rate constant of the isomerization step k3, KI^app is the inhibitor concentration that leads to half-maximal rate of inhibition of enzyme under the assay conditions. Compound inhibition potency was reported by the value of k3/KI^app.
A linear dependence of eq.3
indicates a one-step binding mechanism as shown in Scheme BIO-2
Slope of the linear fit gives the second-order rate constant of the compound binding k1, which is used to represent the compound inhibition potency.
(§1) Representative compounds of the present invention were tested according to the procedures as described in Biological Example 1 and Biological Example 2 above, with results as listed in Table 2 and Table 3, below. Results are reported as the %-inhibition (% Inh) or Kinact/KI value. Variability for the functional assay was typically within 20%. For the column headed Kinact/KI the listed measurement is the result of duplicate dilutions.

Bovine trypsin = target: T2, Bovine trypsin (Bos taurus, UniProt P00760); assay: Biochemical Assay of Trypsin (T), H-D-CHA-AR-AMC substrate; conditions: 15 μM substrate, 0.025 nM Trypsin; for inhibition at 0.1 µM: compound 0.1 μM; for inhibition at 1 µM: compound 1 μM; for inhibition at 10 µM: compound 10 μM; for kinact/KI: 12-point dose-dependence, time-dependent inhibition, duplicate dilutions, read-out: Kinact/KI^App
T2 construct: purchased Sigma-Aldrich T1426
T2 sequence (P00760 24-246): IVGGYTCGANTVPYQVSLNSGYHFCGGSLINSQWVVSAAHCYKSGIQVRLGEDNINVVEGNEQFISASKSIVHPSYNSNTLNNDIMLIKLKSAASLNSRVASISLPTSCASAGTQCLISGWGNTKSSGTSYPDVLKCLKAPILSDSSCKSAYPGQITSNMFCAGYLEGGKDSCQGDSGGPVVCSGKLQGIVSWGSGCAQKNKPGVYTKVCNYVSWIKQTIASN
Protocol: Bovine trypsin was purchased from Sigma-Aldrich (Cat No. T1426), and 7-amino-4-methylcoumarin (AMC) conjugated peptide H-D-cyclohexylalanine (D-CHA)-AR-AMC was used as the substrate in the assay. The protease activity of trypsin was followed by measuring AMC production by the emission fluorescence intensity of AMC at 460 nm with the excitation at 375 nm, in the same assay buffer as used in the EP assay. The enzyme kinetic characterization studies yielded an average of KM to be 3.9±0.5 μM and the apparent turnover number kcat^app of 33.8±0.4 s^−1 (N=2).
Studies of compound inhibition against T were carried out under the conditions of 15 μM substrate and 0.025 nM Trypsin. Reaction progress curves were collected by reading the FI at 375/460 nm continuously for 1 hour at an interval of 1 minute. Similar to the procedure for Enteropeptidase described above, compounds of formula (I) were screened against Trypsin at 4 different concentrations to obtain the percent of inhibition at 10 μM, 1 μM, 0.1 μM and 0.01 μM, and accurate potencies of selected compounds against Trypsin were derived from detailed 12-point dose-dependence studies for time-dependent inhibitors.
as §1

Question: For `N=C(N)Nc1ccc(C(=O)Oc2ccc(CCC(=O)O)n3ccnc23)cc1` [Compound 2, 3-(8-(4-guanidinobenzoyloxy)imidazo[1,2-a]pyridin-5-yl)propanoic acid], which kinact/KI [1] is on record?
Answer: The kinact/KI was 24400 M⁻¹ s⁻¹.

Question: And the inhibition at 0.1 µM [1]?
Answer: Its inhibition at 0.1 µM is 27.6%.

Question: What about the inhibition at 1 µM [1] of the same compound?
Answer: Its inhibition at 1 µM is 95.1%.

Question: And the inhibition at 10 µM [1]?
Answer: The inhibition at 10 µM was 100%.

Question: What about the inhibition at 0.1 µM (Bovine trypsin) of the same compound?
Answer: Its inhibition at 0.1 µM is 61%.

Question: And the inhibition at 1 µM (Bovine trypsin)?
Answer: The inhibition at 1 µM was 100%.

Question: What about the inhibition at 10 µM (Bovine trypsin) of the same compound?
Answer: The inhibition at 10 µM was 100%.

Question: Which inhibition at 0.1 µM [1] does the source give for `N=C(N)Nc1ccc(C(=O)Oc2ccc(CC(=O)O)n3ncnc23)s1` [Compound 10, 2-(8-(5-guanidinothiophene-2-carbonyloxy)-[1,2,4]triazolo[1,5-a]pyridin-5-yl)acetic acid] here?
Answer: The inhibition at 0.1 µM was 82%.

Question: And the inhibition at 1 µM [1]?
Answer: Its inhibition at 1 µM is 100%.

Question: What about the inhibition at 10 µM [1] of the same compound?
Answer: The inhibition at 10 µM was 100%.

Question: And the inhibition at 0.1 µM (Bovine trypsin)?
Answer: The inhibition at 0.1 µM was 93.8%.

Question: What about the inhibition at 1 µM (Bovine trypsin) of the same compound?
Answer: Its inhibition at 1 µM is 99.9%.

Question: And the inhibition at 10 µM (Bovine trypsin)?
Answer: Its inhibition at 10 µM is 99.8%.

Question: `N=C(N)Nc1ccc(C(=O)Oc2ccc(CC(=O)N(CC(=O)O)CC(=O)O)n3ncnc23)cc1` [Compound 6, 2,2′-(2-(8-(4-guanidinobenzoyloxy)-[1,2,4]triazolo[1,5-a]pyridin-5-yl)acetamido)diacetic acid] was tested. Which inhibition at 0.1 µM [1] did it give?
Answer: The inhibition at 0.1 µM was 20.9%.

Question: And the inhibition at 1 µM [1]?
Answer: The inhibition at 1 µM was 72.9%.

Question: And the inhibition at 10 µM [1]?
Answer: Its inhibition at 10 µM is 101%.

Question: And the inhibition at 0.1 µM (Bovine trypsin)?
Answer: The inhibition at 0.1 µM was 89.6%.

Question: What about the inhibition at 1 µM (Bovine trypsin) of the same compound?
Answer: The inhibition at 1 µM was 99.9%.

Question: What about the inhibition at 10 µM (Bovine trypsin) of the same compound?
Answer: Its inhibition at 10 µM is 100%.

Question: For `N=C(N)Nc1ccc(C(=O)Oc2ccc(CC(=O)O)n3ncnc23)c(C(F)(F)F)c1` [Compound 20, 2-(8-(4-guanidino-2-(trifluoromethyl)benzoyloxy)-[1,2,4]triazolo [1,5-a]pyridin-5-yl)acetic acid], which inhibition at 0.1 µM [1] is on record?
Answer: Its inhibition at 0.1 µM is 4.1%.

Question: What about the inhibition at 1 µM [1] of the same compound?
Answer: The inhibition at 1 µM was 38.5%.

Question: What about the inhibition at 10 µM [1] of the same compound?
Answer: Its inhibition at 10 µM is 98.9%.

Question: And the inhibition at 0.1 µM (Bovine trypsin)?
Answer: The inhibition at 0.1 µM was 2.3%.

Question: What about the inhibition at 1 µM (Bovine trypsin) of the same compound?
Answer: Its inhibition at 1 µM is 16.6%.

Question: And the inhibition at 10 µM (Bovine trypsin)?
Answer: Its inhibition at 10 µM is 88.7%.

Question: What does the source list for `N=C(N)Nc1ccc(C(=O)Oc2ccc(CC(=O)O)n3ncnc23)cc1F` [Compound 14, 2-(8-(3-fluoro-4-guanidinobenzoyloxy)-[1,2,4]triazolo[1,5-a]pyridin-5-yl)acetic acid]?
Answer: kinact/KI [1]: 72800 M⁻¹ s⁻¹; inhibition at 0.1 µM [1]: 96.8%; inhibition at 1 µM [1]: 100%; inhibition at 10 µM [1]: 100%; kinact/KI (Bovine trypsin): 69700 M⁻¹ s⁻¹; inhibition at 0.1 µM (Bovine trypsin): 87.6%; inhibition at 1 µM (Bovine trypsin): 100%; inhibition at 10 µM (Bovine trypsin): 100%

Question: Which inhibition at 0.1 µM [1] does the source give for `N=C(N)Nc1ccc(C(=O)Oc2ccc(CC(=O)O)n3ncnc23)cc1Cl` [Compound 16, 2-(8-(3-chloro-4-guanidinobenzoyloxy)-[1,2,4]triazolo[1,5-a]pyridin-5-yl)acetic] here?
Answer: Its inhibition at 0.1 µM is 18.7%.

Question: What about the inhibition at 1 µM [1] of the same compound?
Answer: The inhibition at 1 µM was 84.4%.

Question: And the inhibition at 10 µM [1]?
Answer: Its inhibition at 10 µM is 101%.

Question: And the inhibition at 0.1 µM (Bovine trypsin)?
Answer: Its inhibition at 0.1 µM is 6.3%.

Question: What about the inhibition at 1 µM (Bovine trypsin) of the same compound?
Answer: The inhibition at 1 µM was 56.6%.

Question: What about the inhibition at 10 µM (Bovine trypsin) of the same compound?
Answer: Its inhibition at 10 µM is 99.8%.

Question: How did the kinact/KI [1] turn out when `CS(=O)(=O)NC(=O)Cc1ccc(OC(=O)c2ccc(NC(=N)N)cc2)c2ncnn12` [Compound 8, 5-(2-(methylsulfonamido)-2-oxoethyl)-[1,2,4]triazolo[1,5-a]pyridin-8-yl4-guanidinobenzoate] was run?
Answer: Its kinact/KI is 181000 M⁻¹ s⁻¹.

Question: And the inhibition at 0.1 µM [1]?
Answer: The inhibition at 0.1 µM was 101%.

Question: What about the inhibition at 1 µM [1] of the same compound?
Answer: Its inhibition at 1 µM is 100%.

Question: And the inhibition at 10 µM [1]?
Answer: Its inhibition at 10 µM is 100%.

Question: What about the kinact/KI (Bovine trypsin) of the same compound?
Answer: The kinact/KI was 163000 M⁻¹ s⁻¹.

Question: And the inhibition at 0.1 µM (Bovine trypsin)?
Answer: Its inhibition at 0.1 µM is 98.8%.

Question: What about the inhibition at 1 µM (Bovine trypsin) of the same compound?
Answer: Its inhibition at 1 µM is 100%.

Question: And the inhibition at 10 µM (Bovine trypsin)?
Answer: Its inhibition at 10 µM is 99.9%.

Question: Which inhibition at 0.1 µM [1] does the source give for `C/C(=N\O)Nc1ccc(C(=O)Oc2ccc(CC(=O)O)n3ncnc23)cc1` [Compound 40, (E)-2-(8-(4-(N′-hydroxyacetimidamido)benzoyloxy)-[1,2,4]triazolo[1,5-a]pyridin-5-yl)acetic acid] here?
Answer: The inhibition at 0.1 µM was -10.7%.

Question: And the inhibition at 1 µM [1]?
Answer: The inhibition at 1 µM was -10.1%.

Question: What about the inhibition at 10 µM [1] of the same compound?
Answer: The inhibition at 10 µM was -10.8%.

Question: And the inhibition at 0.1 µM (Bovine trypsin)?
Answer: The inhibition at 0.1 µM was -8%.

Question: And the inhibition at 1 µM (Bovine trypsin)?
Answer: Its inhibition at 1 µM is -0.4%.

Question: And the inhibition at 10 µM (Bovine trypsin)?
Answer: Its inhibition at 10 µM is 10.1%.

Question: `CN(C(=N)N)c1ccc(C(=O)Oc2ccc(CC(=O)O)n3ncnc23)cc1` [Compound 35, 2-(8-(4-(1-methylguanidino)benzoyloxy)-[1,2,4]triazolo[1,5-a]pyridin-5-yl)acetic acid] was tested. Which inhibition at 0.1 µM [1] did it give?
Answer: Its inhibition at 0.1 µM is 40.5%.

Question: What about the inhibition at 1 µM [1] of the same compound?
Answer: The inhibition at 1 µM was 93.8%.

Question: And the inhibition at 10 µM [1]?
Answer: The inhibition at 10 µM was 99.3%.

Question: And the inhibition at 0.1 µM (Bovine trypsin)?
Answer: The inhibition at 0.1 µM was 31.4%.

Question: And the inhibition at 1 µM (Bovine trypsin)?
Answer: The inhibition at 1 µM was 89.2%.

Question: And the inhibition at 10 µM (Bovine trypsin)?
Answer: The inhibition at 10 µM was 98.9%.

Question: Which results are given for `C#CCOCC#Cc1cc(NC(=N)N)ccc1C(=O)Oc1ccc(CC(=O)O)n2ncnc12` [Compound 43, 2-(8-((4-Guanidino-2-(3-(prop-2-yn-1-yloxy)prop-1-yn-1-yl)benzoyl)oxy)-[1,2,4]triazolo[1,5-a]pyridin-5-yl)acetic acid]?
Answer: kinact/KI [1]: 12300 M⁻¹ s⁻¹; inhibition at 0.1 µM [1]: 56.5%; inhibition at 1 µM [1]: 99.9%; inhibition at 10 µM [1]: 99.9%; kinact/KI (Bovine trypsin): 40100 M⁻¹ s⁻¹; inhibition at 0.1 µM (Bovine trypsin): 76.1%; inhibition at 1 µM (Bovine trypsin): 99.5%; inhibition at 10 µM (Bovine trypsin): 100%
